# Data taken from article PMC10974149, “Acheta domesticus: A Natural Source of Anti-Skin-Aging Ingredients for Cosmetic Applications” (Pharmaceuticals, 2024).
# Target: T1, collagenase from Clostridium histolyticum
# T1 construct: gene colG
# Assay: spectrophotometric collagenase inhibition assay
# Format: biochemical
# Details: positive control; substrate not stated in the assay section (FALGPA among reagents)
# Excerpt: spectrophotometric collagenase inhibition assay on collagenase from Clostridium histolyticum
smiles,measurement,value
"CC1(C)CC[C@]2(C(=O)O)CC[C@]3(C)C(=CC[C@@H]4[C@@]5(C)CC[C@H](O)C(C)(C)[C@@H]5CC[C@]43C)[C@@H]2C1 [OA, Oleanolic acid]",IC50 (μg/mL) / Collagenase Inhibition,3 ± 1 µg/mL
